From patent US12655106B2 (Eikonizo Therapeutics, Inc., priority 2021, dated 2026)

Assays:
[1] = target: T1, Full length Human HDAC8 (Homo sapiens, UniProt Q9BY41); assay: Caliper endpoint assay for HDAC enzymatic activity (HDAC8); type: biochemical; settings: in vitro enzymatic, 30 min pre-incubation, 1 μM substrate peptide
T1 construct: Full length Human HDAC8; HIS (N); host or cells: baculovirus expression system
T1 sequence (Q9BY41 1-377): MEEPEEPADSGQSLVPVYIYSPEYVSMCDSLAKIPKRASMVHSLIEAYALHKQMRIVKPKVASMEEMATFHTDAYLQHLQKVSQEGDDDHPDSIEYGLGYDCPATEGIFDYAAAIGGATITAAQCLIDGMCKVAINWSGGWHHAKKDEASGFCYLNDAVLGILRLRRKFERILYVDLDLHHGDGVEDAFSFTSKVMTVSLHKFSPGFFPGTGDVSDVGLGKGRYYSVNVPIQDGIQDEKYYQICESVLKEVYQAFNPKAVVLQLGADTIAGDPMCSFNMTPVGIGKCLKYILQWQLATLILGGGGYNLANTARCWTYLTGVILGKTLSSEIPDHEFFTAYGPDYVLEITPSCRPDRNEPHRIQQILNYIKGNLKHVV

[2] = target: T2, Full length Human HDAC6 (Homo sapiens, UniProt Q9UBN7); assay: Caliper endpoint assay for HDAC enzymatic activity (HDAC6); type: biochemical; settings: for IC50: in vitro enzymatic, Caliper endpoint assay, 30 min pre-incubation, 1 μM substrate peptide; for Selectivity (6 v 8): ratio of HDAC8 IC50/HDAC6 IC50
T2 construct: Full length Human HDAC6; FLAG (C); host or cells: baculovirus expression system
T2 sequence (Q9UBN7 1-1215): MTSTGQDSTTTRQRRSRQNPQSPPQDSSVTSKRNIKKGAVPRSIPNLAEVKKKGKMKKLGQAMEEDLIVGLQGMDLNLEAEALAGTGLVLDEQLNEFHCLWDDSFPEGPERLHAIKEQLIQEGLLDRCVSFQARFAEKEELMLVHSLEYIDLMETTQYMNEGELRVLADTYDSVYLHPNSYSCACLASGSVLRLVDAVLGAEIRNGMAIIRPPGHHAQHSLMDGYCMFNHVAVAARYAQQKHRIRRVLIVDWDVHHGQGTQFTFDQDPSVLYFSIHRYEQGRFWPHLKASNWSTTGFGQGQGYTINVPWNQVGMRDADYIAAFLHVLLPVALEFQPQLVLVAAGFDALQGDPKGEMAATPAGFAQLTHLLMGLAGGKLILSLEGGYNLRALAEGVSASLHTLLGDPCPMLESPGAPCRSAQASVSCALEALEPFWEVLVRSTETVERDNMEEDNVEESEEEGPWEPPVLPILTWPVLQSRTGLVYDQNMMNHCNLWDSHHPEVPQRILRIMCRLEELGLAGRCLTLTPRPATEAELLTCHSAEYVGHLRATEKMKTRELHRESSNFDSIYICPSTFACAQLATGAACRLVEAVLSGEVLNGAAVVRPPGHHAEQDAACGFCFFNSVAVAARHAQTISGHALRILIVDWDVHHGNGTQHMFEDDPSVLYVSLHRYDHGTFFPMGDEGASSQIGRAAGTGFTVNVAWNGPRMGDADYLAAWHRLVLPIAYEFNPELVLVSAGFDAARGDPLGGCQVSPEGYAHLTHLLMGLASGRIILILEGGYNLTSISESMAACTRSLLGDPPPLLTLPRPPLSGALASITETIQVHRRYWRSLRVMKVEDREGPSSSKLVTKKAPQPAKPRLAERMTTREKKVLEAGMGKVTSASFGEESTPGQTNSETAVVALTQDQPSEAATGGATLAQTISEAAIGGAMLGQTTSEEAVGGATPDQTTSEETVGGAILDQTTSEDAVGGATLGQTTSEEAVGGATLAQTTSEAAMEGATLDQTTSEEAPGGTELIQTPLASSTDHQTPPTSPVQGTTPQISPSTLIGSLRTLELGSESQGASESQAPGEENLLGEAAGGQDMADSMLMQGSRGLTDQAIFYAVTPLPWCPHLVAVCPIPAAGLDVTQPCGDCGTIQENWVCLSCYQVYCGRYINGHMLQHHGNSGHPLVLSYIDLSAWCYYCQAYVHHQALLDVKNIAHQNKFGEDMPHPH

| SMILES | IC50 [1] [nM] | IC50 [2] [nM] | Selectivity (6 v 8) [2] |
| --- | --- | --- | --- |
| CC(=O)N1CCC2(CCC2N2CCc3cc(C(=O)NO)cc(F)c3C2)CC1 (stereo not shown) [Compound 360, 2-(7-acetyl-7-azaspiro[3.5]nonan-3-yl)-8-fluoro-3,4-dihydro-1H-isoquinoline-6-carbohydroxamic acid] | 10000 to 100000 | 1 to 100 | IV (IV: >100-1000) |
| O=C(NO)c1cc(F)c2c(c1)CCN(CC1CC3CCC(C1)N3C1CC1)C2 (stereo not shown) [Compound 484, 2-[(8-cyclopropyl-8-azabicyclo[3.2.1]octan-3-yl)methyl]-8-fluoro-3,4-dihydro-1H-isoquinoline-6-carbohydroxamic acid] | 1000 to 10000 | 1 to 100 | IV (IV: >100-1000) |
| CC(=O)N1CCC2(CC1)CC(CN1CCc3cc(C(=O)NO)cc(F)c3C1)C2 [Compound 471, 2-[(7-acetyl-7-azaspiro[3.5]nonan-2-yl)methyl]-8-fluoro-3,4-dihydro-1H-isoquinoline-6-carbohydroxamic acid] | 10000 to 100000 | 1 to 100 | IV (IV: >100-1000) |
| O=C(NO)c1cc(F)c2c(c1)CN1CCCC[C@@H]1C2 [Compound 145] | 10000 to 100000 | 1 to 100 | IV (IV: >100-1000) |
| O=C(NO)c1cc(F)c2c(c1)CCN(C1CC3(CCNCC3)C1)C2 [Compound 197, 2-(7-azaspiro[3.5]nonan-2-yl)-8-fluoro-3,4-dihydro-1H-isoquinoline-6-carbohydroxamic acid] | 10000 to 100000 | 1 to 100 | IV (IV: >100-1000) |
| O=C(NO)c1cc(F)c(CN2C3CCC2CC(=NO)C3)cc1F [Compound 54] | 100 to 1000 | 1 to 100 | III (III: >10-100) |
| O=C(NO)c1ccc2c(c1)C[C@@H]1CCCN1C2 [Compound 121] | 10000 to 100000 | 100 to 1000 | III (III: >10-100) |
| Cc1cc2c(cc1C(=O)NO)CCN(C1CC3(CCCCC3)C1)C2 | 10000 to 100000 | > 100000 | V (V: >1000) |

More lines, now with the values ahead:

| IC50 [1] [nM] | IC50 [2] [nM] | Selectivity (6 v 8) [2] | SMILES |
| --- | --- | --- | --- |
| 10000 to 100000 | 1 to 100 | IV (IV: >100-1000) | CC[C@@H]1Cc2c(F)cc(C(=O)NO)cc2CN1C1CCC1 (single isomer, unassigned) [Compound 596] |
| 10000 to 100000 | 1 to 100 | IV (IV: >100-1000) | O=C(NO)c1cc(F)c2c(c1)CCN(C[C@H]1CCCCO1)C2 (single isomer, unassigned) [Compound 175] |
| 10000 to 100000 | 100 to 1000 | III (III: >10-100) | CC[C@@H]1Cc2c(F)cc(C(=O)NO)cc2CN1C1CC2(CCN(C(C)=O)CC2)C1 (single isomer, unassigned) [Compound 602] |
| 1000 to 10000 | 1 to 100 | – | CC[C@@H]1CCCN1Cc1ccc(C(=O)NO)cc1F [Compound 48] |
| 10000 to 100000 | 1 to 100 | IV (IV: >100-1000) | CC[C@H]1Cc2c(F)cc(C(=O)NO)cc2CN1CC1C2CNCC1C2 (single isomer, unassigned) [Compound 529] |
| 1000 to 10000 | 1 to 100 | – | C[C@H]1CC[C@H]2c3c(F)cc(C(=O)NO)cc3CCN12 (single isomer, unassigned) [Compound 157] |
| 1000 to 10000 | 1 to 100 | III (III: >10-100) | CC[C@@H]1Cc2c(F)cc(C(=O)NO)cc2CN1CC1CCC2(CCC2)CC1 (single isomer, unassigned) [Compound 527] |
